# From US7015209B2, “Hair-growing agent” (Kyowa Hakko Kogyo Co., Ltd., priority 1999, dated 2006)
# Where two headings read alike, the source gives them in different places.
# How the values were obtained:
# [1] = target: protein kinase A (PKA) (Bos taurus, UniProt P00517); assay: Measurement of PKA-inhibiting activity (PKA-IC50); format: biochemical; details: crude enzyme partially purified from calf heart
# Source text: (2) Method for Measuring PKA-Inhibiting Activity
# [2] = tested on: protein kinase C (PKC); assay: Measurement of PKC-inhibiting activity (PKC-IC50); details: for IC50: read-out: PKC-IC50, crude enzyme partially purified from rat brain
# Experimental: (1) Method for Measuring PKC-Inhibiting Activity
# Measurement of PKC-inhibiting activity can be carried out in a manner similar to the method of Kikkawa, et al. [Journal of Biological Chemistry, 257, 13341 (1982)].
# To 250 μl of an aqueous solution comprising 2.5 μmol of magnesium acetate, 50 μg of histone Type IIIS (Sigma Chemical Co., Ltd.), 20 μg of phosphatidylserine, 0.8 μg. of diolein, 25 nmol of calcium chloride, 5 μg of a crude enzyme (partially purified from rat brain by the method of Kikkawa, et al.) and 5 μmol of Tris-HCl buffer (pH 7.5) is added the above aqueous solution containing a test compound (10 μl), followed by incubation at 30° C. for 3 minutes. After the incubation, 1.25 nmol of [γ-^32P]ATP (5–10×10^3 cpm/nmol) is added thereto, followed by phosphorylation reaction at 30° C. for 3 minutes. The reaction is terminated by addition of 25% trichloroacetic acid and the reaction mixture is filtered through a cellulose acetate membrane (pore size: 0.45 μm, Toyo Filter Co., Ltd.) After the membrane is washed four times with 5% trichloroacetic acid, the radioactivity remaining on the membrane is measured as a test compound value. Separately, the above procedure is carried out in the same manner without addition of the test compound and the radioactivity is measured as a control value.
# The molar concentration of the test compound giving a test compound value which is 50% of the control value is regarded as the 50% PKC inhibition constant (PKC-IC50).
# [3] = tested on: mouse hair follicle epithelial cells; assay: Cell growth-promoting effect on cultured mouse hair follicle epithelial cells (MTT); format: cell-based
# Experimental: Hair follicle epithelial cells were separated and cultured according to a modification of the method of Tanigaki, et al. [Archives of Dermatological Research, 284, 290–296 (1992)].
# The skin on the back of a 4-days-old C3H mouse (Charles River Japan, Inc.) was cut off and treated with MEM (Eagle's Minimum Essential Medium) containing 500 units/ml Dispase (Godo Shusei Co., Ltd.) and 5% fetal calf serum (FCS) at 4° C. for 16 hours.
# Then, the epidermis was stripped from the skin section, and the obtained dermis layer was treated with DMEM (Dulbecco's modified Eagle Medium) containing 0.25% Collagenase N-2 (Nitta Gelatin Co., Ltd.) and 10% FCS at 37° C. for one hour to obtain a dermis suspension. The dermis suspension was filtered through a 212-μm nylon mesh (Nippon Rikagaku Kikai Co., Ltd.) and the filtrate was centrifuged at 1000 rpm for 5 minutes to obtain pellets containing hair follicle tissue. To the pellets was added calcium/magnesium-free PBS (Dulbecco's Phosphate-Buffered Saline) and the pellets were suspended therein using a pipette. The resulting suspension was allowed to stand for 15 minutes to precipitate hair tissue. The same procedure as above (addition of calcium/magnesium-free PBS, suspending by use of a pipette, and precipitation by allowing suspension to stand for 15 minutes) was repeated three times using the obtained hair tissue.
# Then, the hair tissue was treated with a solution containing 0.1% ethylenediaminetetraacetic acid (EDTA) and 0.25% trypsin (Gibco) at 37° C. for 5 minutes. To the resulting mixture was added DMEM containing 10% FCS to prepare a hair tissue cell suspension having a density of 3×10^5 cells/ml. The hair tissue cell suspension was put into wells of a 24-well collagen-coated plate (Iwaki Glass Co., Ltd.) in an amount of 1 ml/well, followed by culturing in 5% CO2 at 37° C. for 24 hours.
# After the culturing, the medium was replaced by a medium prepared by adding to MCDB153 medium (Kyokuto Pharmaceutical Ind. Co., Ltd.) DMSO containing 5 mg/l bovine insulin (Sigma Chemical Co., Ltd.); 5 μg/l mouse epidermal growth factor (EGF) (Takara Shuzo Co., Ltd.); 40 mg/l bovine pituitary extract (Kyokuto Pharmaceutical Ind. Co., Ltd.); 10 mg/l human transferrin (Sigma Chemical Co., Ltd.); 0.4 mg/l hydrocortisone (Sigma Chemical Co., Ltd.); 0.63 μg/l progesterone (Collaborative Research Co.); 14 mg/l O-phosphoethanolamine (Sigma Chemical Co., Ltd.); 6.1 mg/l ethanolamine (Sigma Chemical Co., Ltd.); 50 U/ml penicillin (Wako Pure Chemical Industries, Ltd.); 50 μg/ml streptomycin (Wako Pure Chemical Industries, Ltd.); monooleoyl lysophosphatidic acid, dioleoyl phosphatidic acid (Sigma Chemical Co., Ltd.), didecanoyl phosphatidic acid (Sigma Chemical Co., Ltd.), dimyristoyl phosphatidic acid (Funakoshi Co., Ltd.), dipalmitoyl phosphatidic acid (Wako Pure Chemical Industries, Ltd.), dilauroyl phosphatidic acid (Funakoshi Co., Ltd.) or egg yolk-derived phosphatidic acid (Sigma Chemical Co., Ltd.); and/or proanthocyanidin, a protein kinase C-specific inhibitor or tocopherol (added in an amount of 1/100 by volume), followed by further culturing in 5% CO2 at 37° C. for 5 days. During the culturing, the medium was replaced with a fresh one every other day.
# As a control, the cells were cultured in the same medium as above except that DMSO alone was added in an amount of 1/100 by volume in place of DMSO containing lysophosphatidic acid or phosphatidic acid, and/or proanthocyanidin, a protein kinase C-specific inhibitor or tocopherol.
# The degree of cell growth was measured according to the method using MTT [3-(4,5-dimethylthiazol-2-yl)-2,5-diphenyl tetrazolium bromide] [Experimental Medicine (extra number), Bio Manual UP Series, Experimental Method of Cell Culture for Molecular Biological Studies, p. 89–92, Yodosha (1995)].
# To each well of the 24-well microplate (2 cm^2/well) was added a PBS solution of MTT (5 mg/ml) in an amount of 1/10 by volume based on 1 ml of the culture. […]
# [4] = Table 2 (1), 30 μmol/l alone, 5 days culture
# [5] = Table 2 (2), 10 μmol/l alone, 5 days culture
# [6] = Table 2 (1), 3 μmol/l alone, 5 days culture
molecule,measurement,setting,value
CCCCCCCCCCCCCCCC(=O)OC(CC(=O)[O-])C[N+](C)(C)C (racemic) [Palmitoyl-DL-carnitine],IC50,[1],> 1000 µM
same,PKA-IC50/PKC-IC50,[2],> 4.3
same,IC50,[2],230 µM
"Oc1cc(O)c2c(c1)O[C@H](c1ccc(O)c(O)c1)[C@H](O)[C@H]2c1c(O)cc(O)c2c1O[C@H](c1ccc(O)c(O)c1)[C@H](O)C2 [Procyanidin B-2, epicatechin-(4β→8)-epicatechin]",Relative cell growth rate based on the control as 100,[3]; [4],260
same,Relative cell growth rate based on the control as 100,[3]; [5],251
Calphostin C,Relative cell growth rate based on the control as 100,[3]; [6],180
same,Relative cell growth rate based on the control as 100,"[3]; Table 2 (2), 0.01 μmol/l alone",172
same,IC50,[1],> 50 µM
same,PKA-IC50/PKC-IC50,[2]; ratio of PKA-IC50 to PKC-IC50,>1000 ∥mol/l
same,IC50,[2],0.05 µM
"CCCCCCCCCCCCCC(=O)OCC(COP(=O)(O)O)OC(=O)CCCCCCCCCCCCC (stereo not drawn) [Dimyristoyl phosphatidic acid, dimyristoyl phosphatidic acid]",Relative cell growth rate based on the control as 100,[3]; [5],361
"CCCCCCCC/C=C\CCCCCCCC(=O)OC[C@H](COP(=O)(O)O)OC(=O)CCCCCCC/C=C\CCCCCCCC [Dioleoyl phosphatidic acid, dioleoyl phosphatidic acid]",Relative cell growth rate based on the control as 100,[3]; [5],255
Cc1c(C)c2c(c(C)c1O)CCC(C)(CCCC(C)CCCC(C)CCCC(C)C)O2 (racemic) [dl-α-Tocopherol],Relative cell growth rate based on the control as 100,[3]; [4],150
same,Relative cell growth rate based on the control as 100,"[3]; Table 2 (2), 30 μmol/l alone",199
"CCCCCCCCCCCCCCCC(=O)OC[C@H](COP(=O)(O)O)OC(=O)CCCCCCCCCCCCCCC [Dipalmitoyl phosphatidic acid, dipalmitoyl phosphatidic acid]",Relative cell growth rate based on the control as 100,"[3]; Table 2 (2), 20 μmol/l alone",314
"CCCCCCCCCC(=O)OCC(COP(=O)(O)O)OC(=O)CCCCCCCCC (stereo not drawn) [Didecanoyl phosphatidic acid, didecanoyl phosphatidic acid]",Relative cell growth rate based on the control as 100,"[3]; Table 2 (2), 1 μmol/l alone",168
"CCCCCCCCCCCC(=O)OC[C@H](COP(=O)(O)O)OC(=O)CCCCCCCCCCC [Dilauroyl phosphatidic acid, dilauroyl phosphatidic acid]",Relative cell growth rate based on the control as 100,[3]; [5],379
Polymyxin B,IC50,[1],> 1000 µM
same,PKA-IC50/PKC-IC50,[2],> 384
same,IC50,[2],2.6 µM
"CCCCCCCC/C=C\CCCCCCCC(=O)OC[C@@H](O)COP(=O)(O)O [Monooleoyl lysophosphatidic acid, monooleoyl lysophosphatidic acid]",Relative cell growth rate based on the control as 100,[3]; [6],200
